Values of other authors, collected in US11220552B2, “Anti-CD20 combinations for treating tumors” (BIRDIE BIOPHARMACEUTICALS, INC., priority 2016, dated 2022).
Values belong to the substance of their own block, whether it stands above or below them.

Columns and labels:
[1] = tested on: three human lymphoma cell lines
CD20 = biological target: T1, CD20 (Homo sapiens, UniProt P11836); conditions: Asp101 instead of Asn101 in CDR3 of variable heavy chain, versus rituximab CDRs
T1 sequence (P11836 1-297): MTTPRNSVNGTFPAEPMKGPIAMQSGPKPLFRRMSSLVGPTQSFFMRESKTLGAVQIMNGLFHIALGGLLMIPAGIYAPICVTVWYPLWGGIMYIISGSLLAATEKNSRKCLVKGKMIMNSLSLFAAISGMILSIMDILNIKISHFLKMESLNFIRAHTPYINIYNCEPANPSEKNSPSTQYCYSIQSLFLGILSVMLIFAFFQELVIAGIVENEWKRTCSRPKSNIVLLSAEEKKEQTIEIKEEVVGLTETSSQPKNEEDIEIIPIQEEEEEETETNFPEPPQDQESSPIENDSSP

[2] = tested on: rituximab-sensitive and resistant cells

off-rates (CD20): significantly slower
Substance: Veltuzumab: humanized, type I anti-CD20 IgG1 mAb with CDRs identical to rituximab except Asp101 instead of Asn101
CDC cytotoxicity [1]: increased

Substance: GA101: fully humanized, type II, glycoengineered IgG1 anti-CD20 mAb (Glycart/Roche)
activity in rituximab-resistant cell lines ([2]; rituximab-resistant cell lines): activity

Substance: Ofatumumab: fully human type I anti-CD20 IgG1kappa mAb (Genmab)
potency compared with rituximab ([2]; both rituximab-sensitive and resistant cells): more potent than rituximab

Substance: Ocrelizumab: type I second generation humanized anti-CD20 mAb (Genentech/Roche/Biogen)
ADCC activity compared with rituximab (lymphoid malignancies): increased
CDC activity compared with rituximab (lymphoid malignancies): lower
